# Results taken from article PMC11081458 (Nature structural & molecular biology, 2024).
# Experiments:
# [1] = biological target: previously studied CBM26 modules; conditions: read-out: dissociation constant (Kd) range; cited from earlier work
# Sas6T = Sas6T (Ruminococcus bromii, UniProt A0ABF7PL48); assay: Isothermal titration calorimetry with Sas6T; conditions: for n (binding stoichiometry) / binding by ITC (in words): ITC; for n (binding stoichiometry): fitted n
# RbCBM26 = RbCBM26 (Ruminococcus bromii, UniProt A0ABF7PL48); assay: Isothermal titration calorimetry with RbCBM26; conditions: for n (binding stoichiometry) / binding by ITC (in words): ITC; for n (binding stoichiometry): fitted n
# [2] = system: H289A site-directed mutant within the BIg–RbCBM74–BIg construct; assay: Isothermal titration calorimetry with H289A mutant; conditions: ITC
# [3] = system: W373A site-directed mutant within the BIg–RbCBM74–BIg construct; assay: Isothermal titration calorimetry with W373A mutant
# BIg–RbCBM74–BIg [4] = biological target: T1, BIg–RbCBM74–BIg (Ruminococcus bromii, UniProt A0ABF7PL48); assay: Isothermal titration calorimetry with BIg–RbCBM74–BIg
# [5] = system: F326A site-directed mutant within the BIg–RbCBM74–BIg construct; assay: Isothermal titration calorimetry with F326A mutant; conditions: ITC
# BIg–RbCBM74–BIg [6] = biological target: T1, BIg–RbCBM74–BIg; assay: Native mass spectrometry titration, BIg–RbCBM74–BIg; conditions: native MS, 5 μM protein, 200 mM ammonium acetate
# Chain of RbCBM26 (A0ABF7PL48 31-129 limits assumed): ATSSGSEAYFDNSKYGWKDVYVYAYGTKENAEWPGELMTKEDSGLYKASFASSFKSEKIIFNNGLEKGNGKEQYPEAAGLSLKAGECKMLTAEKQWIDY
# T1 sequence (A0ABF7PL48 134-665 limits assumed): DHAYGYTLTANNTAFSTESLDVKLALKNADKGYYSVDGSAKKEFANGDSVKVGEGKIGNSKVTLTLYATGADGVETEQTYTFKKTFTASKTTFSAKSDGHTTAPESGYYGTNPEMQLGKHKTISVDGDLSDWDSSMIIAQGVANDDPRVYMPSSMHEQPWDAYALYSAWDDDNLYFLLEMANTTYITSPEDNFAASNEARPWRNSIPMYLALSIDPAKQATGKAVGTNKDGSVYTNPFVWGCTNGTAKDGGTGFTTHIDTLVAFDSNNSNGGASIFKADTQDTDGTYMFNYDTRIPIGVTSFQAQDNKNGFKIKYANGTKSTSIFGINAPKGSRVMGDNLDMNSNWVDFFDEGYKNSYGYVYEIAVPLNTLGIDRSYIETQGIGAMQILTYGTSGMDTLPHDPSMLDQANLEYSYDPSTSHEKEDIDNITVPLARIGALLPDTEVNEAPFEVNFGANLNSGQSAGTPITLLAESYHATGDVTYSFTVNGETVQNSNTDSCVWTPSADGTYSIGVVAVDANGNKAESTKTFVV
# Chain of Sas6T (A0ABF7PL48 31-665 limits assumed): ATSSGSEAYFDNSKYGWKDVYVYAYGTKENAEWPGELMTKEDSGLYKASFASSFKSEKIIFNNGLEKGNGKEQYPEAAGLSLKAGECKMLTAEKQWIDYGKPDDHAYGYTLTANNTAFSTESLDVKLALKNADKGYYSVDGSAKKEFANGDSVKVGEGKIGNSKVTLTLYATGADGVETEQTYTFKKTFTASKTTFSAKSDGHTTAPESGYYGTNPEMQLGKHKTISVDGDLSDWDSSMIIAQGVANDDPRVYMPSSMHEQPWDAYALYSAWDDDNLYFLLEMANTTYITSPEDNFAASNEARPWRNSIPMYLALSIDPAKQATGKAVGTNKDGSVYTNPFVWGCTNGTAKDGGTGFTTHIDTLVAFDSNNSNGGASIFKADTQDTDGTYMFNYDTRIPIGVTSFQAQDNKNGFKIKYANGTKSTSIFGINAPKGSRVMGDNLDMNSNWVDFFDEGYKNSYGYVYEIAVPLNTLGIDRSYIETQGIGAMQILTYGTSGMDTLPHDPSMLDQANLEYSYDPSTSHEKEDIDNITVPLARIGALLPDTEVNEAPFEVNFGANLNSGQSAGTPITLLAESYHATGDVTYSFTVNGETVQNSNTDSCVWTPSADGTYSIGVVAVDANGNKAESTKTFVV
compound,measurement,setting,value
OC[C@H]1O[C@@H]2O[C@H]3[C@H](O)[C@@H](O)[C@@H](O[C@H]4[C@H](O)[C@@H](O)[C@@H](O[C@H]5[C@H](O)[C@@H](O)[C@@H](O[C@H]6[C@H](O)[C@@H](O)[C@@H](O[C@H]7[C@H](O)[C@@H](O)[C@@H](O[C@H]8[C@H](O)[C@@H](O)[C@@H](O[C@H]1[C@H](O)[C@H]2O)O[C@@H]8CO)O[C@@H]7CO)O[C@@H]6CO)O[C@@H]5CO)O[C@@H]4CO)O[C@@H]3CO [β-cyclodextrin],Kd,[1],350 to 600 µM
"OC[C@H]1O[C@H](O[C@H]2[C@H](O)[C@@H](O)[C@@H](O[C@H]3[C@H](O)[C@@H](O)[C@@H](O[C@H]4[C@H](O)[C@@H](O)[C@@H](O[C@H]5[C@H](O)[C@@H](O)[C@@H](O[C@H]6[C@H](O)[C@@H](O)[C@@H](O[C@H]7[C@H](O)[C@@H](O)[C@@H](O[C@H]8[C@H](O)[C@@H](O)[C@@H](O[C@H]9[C@H](O)[C@@H](O)[C@@H](O[C@H]%10[C@H](O)[C@@H](O)C(O)O[C@@H]%10CO)O[C@@H]9CO)O[C@@H]8CO)O[C@@H]7CO)O[C@@H]6CO)O[C@@H]5CO)O[C@@H]4CO)O[C@@H]3CO)O[C@@H]2CO)[C@H](O)[C@@H](O)[C@@H]1O (stereo partly shown) [G10, maltodecaose]",n (binding stoichiometry),Sas6T,0.8 ± 0.07
same,n (binding stoichiometry),RbCBM26,0.7 ± 0.21
same,decrease in affinity relative to BIg–RbCBM74–BIg,[2],10–20 fold
same,binding by ITC (in words),[3],lost binding
same,n (binding stoichiometry),"BIg–RbCBM74–BIg [4]; ITC, fitted n",0.9 ± 0.20
same,decrease in affinity relative to BIg–RbCBM74–BIg,[5],10–20 fold
same,Kd,BIg–RbCBM74–BIg [6],2.16 ± 0.53 µM
"OC[C@H]1O[C@H](O[C@H]2[C@H](O)[C@@H](O)[C@@H](O[C@H]3[C@H](O)[C@@H](O)[C@@H](O[C@H]4[C@H](O)[C@@H](O)[C@@H](O[C@H]5[C@H](O)[C@@H](O)[C@@H](O[C@H]6[C@H](O)[C@@H](O)[C@@H](O[C@H]7[C@H](O)[C@@H](O)[C@@H](O[C@H]8[C@H](O)[C@@H](O)[C@@H](O[C@H]9[C@H](O)[C@@H](O)[C@@H](O[C@H]%10[C@H](O)[C@@H](O)[C@@H](O[C@H]%11[C@H](O)[C@@H](O)[C@@H](O[C@H]%12[C@H](O)[C@@H](O)[C@@H](O[C@H]%13[C@H](O)[C@@H](O)[C@@H](O[C@H]%14[C@H](O)[C@@H](O)C(O)O[C@@H]%14CO)O[C@@H]%13CO)O[C@@H]%12CO)O[C@@H]%11CO)O[C@@H]%10CO)O[C@@H]9CO)O[C@@H]8CO)O[C@@H]7CO)O[C@@H]6CO)O[C@@H]5CO)O[C@@H]4CO)O[C@@H]3CO)O[C@@H]2CO)[C@H](O)[C@@H](O)[C@@H]1O (stereo partly shown) [G14, maltotetradecaose]",Kd,BIg–RbCBM74–BIg [6],1.29 ± 0.1 µM
"OC[C@H]1O[C@H](OC[C@H]2O[C@H](O[C@H]3[C@H](O)[C@@H](O)[C@@H](O[C@H]4[C@H](O)[C@@H](O)[C@@H](OC[C@H]5O[C@H](O[C@H]6[C@H](O)[C@@H](O)[C@@H](O[C@H]7[C@H](O)[C@@H](O)C(O)O[C@@H]7CO)O[C@@H]6CO)[C@H](O)[C@@H](O)[C@@H]5O)O[C@@H]4CO)O[C@@H]3CO)[C@H](O)[C@@H](O)[C@@H]2O)[C@H](O)[C@@H](O)[C@@H]1O (stereo partly drawn) [glucosyl-α1,6-maltotriosyl-α 1,6-maltotriose]",binding by ITC (in words),Sas6T,None of the constructs bound
same,binding by ITC (in words),RbCBM26,None of the constructs bound
same,binding by ITC (in words),BIg–RbCBM74–BIg [4],None of the constructs bound
"OC[C@H]1O[C@@H]2O[C@H]3[C@H](O)[C@@H](O)[C@@H](O[C@H]4[C@H](O)[C@@H](O)[C@@H](O[C@H]5[C@H](O)[C@@H](O)[C@@H](O[C@H]6[C@H](O)[C@@H](O)[C@@H](O[C@H]7[C@H](O)[C@@H](O)[C@@H](O[C@H]1[C@H](O)[C@H]2O)O[C@@H]7CO)O[C@@H]6CO)O[C@@H]5CO)O[C@@H]4CO)O[C@@H]3CO [ACX, α-cyclodextrin]",n (binding stoichiometry),Sas6T,1.0 ± 0.4
same,binding by ITC (in words),RbCBM26,binds
same,n (binding stoichiometry),RbCBM26,0.8 ± 0.13
same,binding by ITC (in words),BIg–RbCBM74–BIg [4],no detectable affinity
"OC[C@H]1O[C@H](O[C@H]2[C@H](O)[C@@H](O)[C@@H](O[C@H]3[C@H](O)[C@@H](O)[C@@H](O[C@H]4[C@H](O)[C@@H](O)[C@@H](O[C@H]5[C@H](O)[C@@H](O)[C@@H](O[C@H]6[C@H](O)[C@@H](O)[C@@H](O[C@H]7[C@H](O)[C@@H](O)[C@@H](O[C@H]8[C@H](O)[C@@H](O)C(O)O[C@@H]8CO)O[C@@H]7CO)O[C@@H]6CO)O[C@@H]5CO)O[C@@H]4CO)O[C@@H]3CO)O[C@@H]2CO)[C@H](O)[C@@H](O)[C@@H]1O (stereo partly shown) [G8, maltooctaose]",Kd,Sas6T,496 ± 260 µM
same,binding by ITC (in words),Sas6T,in the hundreds of μM
same,Kd,RbCBM26,285 ± 84 µM
maltoheptaose [G7],binding by ITC (in words),Sas6T,in the hundreds of μM
same,binding by ITC (in words),RbCBM26,binds
same,binding by ITC (in words),BIg–RbCBM74–BIg [4],no detectable affinity
